Measurements as given in patent US20030083342A1, “Combination of organic compounds” (priority 2002, published 2003).
Where two headings read alike, the source gives them in different places.

Legend:
[1] = tested on: response to Ang I; experiment: Response to injected Ang I in pretreated Wistar Kyoto rats; type: in vivo; settings: Wistar Kyoto rats pretreated with (+)-fadrozole hydrochloride or valsartan 5 mg/kg/d; comparison of the two pretreatments
Protocol: The rats are divided into 5 groups: group 1, control (n=40); Group 2, valsartan (5 mg/kg/d; n=40); Group 3, the (+)-enantiomer of the hydrochloride of fadrozole (n=30); Group 4, a combination of the (+)-enantiomer of the hydrochloride of fadrozole and valsartan (5 mg/kg/d); n=30) and Group 5, valsartan (50 mg/kg/d; n=30). The drugs are administered in drinking fluid.

[2] = tested on: pressor effect of Ang II; settings: Ang II at 1 mg/kg, normotensive rats, cited from earlier work

| Structure (SMILES) | response to Ang I injected [1] | reduction of the pressor effect of Ang II ([2]; valsartan 5 mg/kg/d) [%] | reduction of the pressor effect of Ang II ([2]; valsartan 50 mg/kg/d) [%] |
| --- | --- | --- | --- |
| Cl.N#Cc1ccc([C@H]2CCCc3cncn32)cc1 [(+)-enantiomer of the hydrochloride of fadrozole] | similar |  |  |
| CCCCC(=O)N(Cc1ccc(-c2ccccc2-c2nnn[nH]2)cc1)[C@H](C(=O)O)C(C)C [valsartan, (S)-N-(1-carboxy-2-methylprop-1-yl)-N-pentanoyl-N-[2′(1H-tetrazol-5-yl)biphenyl-4-yl-methyl]amine] | similar | 49 | 73 |
